Here are results for 27 molecules from patent US20240116897A1, “BENZOTHIAZOLE AND BENZIMIDAZOLE DERIVATIVES, PHARMACEUTICALLY ACCEPTABLE SALT THEREOF, PREPARATION METHOD THEREFOR, AND PHARMACEUTICAL COMPOSITION COMPRISING SAME AS ACTIVE INGREDIENT” (KOREA RESEARCH INSTITUTE OF CHEMICAL TECHNOLOGY, priority 2021, published 2024).

The structures appear in SMILES notation.

The target of this assay is T1, SIRT7 protein (Homo sapiens, UniProt Q9NRC8).
T1 construct: purchased SignalChem S41-30H
T1 sequence (Q9NRC8 1-400): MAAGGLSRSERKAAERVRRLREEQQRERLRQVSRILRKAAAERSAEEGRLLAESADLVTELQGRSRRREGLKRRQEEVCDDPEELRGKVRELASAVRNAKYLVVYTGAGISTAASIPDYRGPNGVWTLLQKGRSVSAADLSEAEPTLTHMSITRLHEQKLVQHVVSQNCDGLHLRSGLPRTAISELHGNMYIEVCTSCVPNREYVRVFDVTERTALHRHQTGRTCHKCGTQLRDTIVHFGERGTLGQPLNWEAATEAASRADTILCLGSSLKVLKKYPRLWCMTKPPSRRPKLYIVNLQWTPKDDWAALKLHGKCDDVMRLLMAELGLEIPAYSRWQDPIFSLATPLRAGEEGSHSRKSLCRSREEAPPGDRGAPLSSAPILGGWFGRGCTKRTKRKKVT
The assay can be described thus: SIRT Glo assay, inhibitory activity against Sirt7. As to conditions: 10 μM compound. It counts as biochemical. How it is done: Promega's Cat. No. 6450 SIRT Glo assay kit was used, and as the target SIRT7 protein, No. S41-30H protein of SignalChem's Cat. was used. Prepare the compound by diluting it in SIRT Glo buffer in advance to a concentration twice as thick as the final concentration. For the positive control group of white 384 well plate (Greiner Bioone, white, small volume, Cat. No. 874075), and for compound group, dilute sirt7 protein in SIRT Glo buffer and dispense by 5 μL to contain 20 ng per well. In the background control group, 10 μL of SIRT Glo buffer is dispensed.
After adding 5 μL of SIRT Glo buffer to the positive control group, and 5 μL of the diluted compound to the compound group, react for 30 minutes. After making the substrate provided in the SIRT Glo assay, adding 10 μL each, and reacting for 1 hour, the luciferase activity is measured with a microplate reader (Molecular Device, spectramax i3).
Subtract the luciferase level of the background control group in all wells. The % inhibition of the compound was used to obtain the compound's rate of inhibitory activity against sirt7 in the following:
% inhibition=100−(compound group/positive control group)×100.

By inhibition is commonly meant the drop in the measured response relative to a control, in per cent. Read a high inhibition as strong suppression.

On to `CC(C)(C)OC(=O)N1CCC(=Cc2ccc(C(=O)Nc3nc4ccccc4s3)cc2)CC1` [Compound 1-63, tert-butyl 4-(4-(benzo[d]thiazol-2-ylcarbamoyl)benzylidene)piperidine-1-carboxylate], for which at 10 µM the inhibition was 10%.

Regarding `CC(C)(C)OC(=O)N1CCC(Cc2ccc(C(=O)Nc3nc4ccccc4s3)cc2)CC1` [Compound 1-64, tert-butyl 4-(4-(benzol[d]thiazol-2-ylcarbamoyl)benzyl)piperidine-1-carboxylate], the inhibition at 10 µM was determined as 7%.

With `O=C(Nc1nc2ccccc2s1)c1ccc(C=C2CCNCC2)cc1` [Compound 1-65, N-(benzo[d]thiazol-2-yl)-4-(piperidin-4-ylidenemethyl)benzamide], testing at 10 µM gave an inhibition of 5%.

Consider `O=C(Nc1nc2ccccc2s1)c1ccc(CC2CCNCC2)cc1` [Compound 1-66, N-(benzo[d]thiazol-2-yl)-4-(piperidin-4-ylmethyl)benzamide], for which testing at 10 µM gave an inhibition of 16%.

The molecule `CCNC(=O)N1CCC(=Cc2ccc(C(=O)Nc3nc4ccccc4s3)cc2)CC1` [Compound 1-67, 4-(4-(benzo[d]thiazol-2-ylcarbamoyl)benzylidene)-N-ethylpiperidine-1-carboxamide] returned an inhibition at 10 µM of 92%.

`O=C(Nc1nc2ccccc2s1)c1ccc(C=C2CCN(C(=O)Nc3ccccc3)CC2)cc1` [Compound 1-68, 4-(4-(benzo[d]thiazol-2-ylcarbamoyl)benzylidene)-N-phenylpiperidine-1-carboxamide] gave an inhibition at 10 µM of 100%.

Take `CCNC(=O)N1CCC(Cc2ccc(C(=O)Nc3nc4ccccc4s3)cc2)CC1` [Compound 1-69, 4-(4-(benzo[d]thiazol-2-ylcarbamoyl)benzyl)-N-ethylpiperidine-1-carboxamide]: 10 µM produced 100% inhibition.

The molecule `O=C(Nc1nc2ccccc2s1)c1ccc(CN2C[C@@H]3C[C@H]2CN3)cc1` [Compound 1-71, 4-(((1S,4S)-2,5-diazabicyclo[2.2.1]heptan-2-yl)methyl)-N-(benzo[d]thiazol-2-yl)benzamide] yielded an inhibition at 10 µM of 23%.

As for `CCNC(=O)N1C[C@@H]2C[C@H]1CN2Cc1ccc(C(=O)Nc2nc3ccccc3s2)cc1` [Compound 1-72, (1S,4S)-5-(4-(benzo[d]thiazol-2-ylcarbamoyl)benzyl)-N-ethyl-2,5-diazabicyclo[2.2.1]heptane-2-carboxamide], testing at 10 µM gave an inhibition of 40%.

Take `O=C(Nc1nc2ccccc2s1)c1ccc(CN2C[C@@H]3C[C@H]2CN3C(=O)Nc2ccccc2)cc1` [Compound 1-73, (1S,4S)-5-(4-(benzo[d]thiazol-2-ylcarbamoyl)benzyl)-N-phenyl-2,5-diazabicyclo[2.2.1]heptane-2-carboxamide]: the inhibition at 10 µM stood at 64%.

With `CC(C)(C)OC(=O)N1CC=C(c2ccc(C(=O)Nc3nc4ccccc4s3)cc2)CC1` [Compound 1-74, tert-butyl 4-(4-(benzo[d]thiazol-2-ylcarbamoyl)phenyl)-3,6-dihydropyridine-1-(2H)-carboxylate], 10 µM produced 10% inhibition.

Regarding `O=C(Nc1nc2ccccc2s1)c1ccc(C2=CCNCC2)cc1` [Compound 1-75, N-(benzo[d]thiazol-2-yl)-4-(1,2,3,6-tetrahydropyridin-4-yl)benzamide], at 10 µM the inhibition was 26%.

In turn, `O=C(Nc1nc2ccccc2s1)c1ccc(C2=CCN(C(=O)Nc3ccc(C(F)(F)F)cc3)CC2)cc1` [Compound 1-76] had an inhibition at 10 µM of 5%.

For the molecule `O=C(Nc1nc2ccccc2s1)c1ccc(C2CCN(C(=O)Nc3ccc(C(F)(F)F)cc3)CC2)cc1` [Compound 1-77], the inhibition at 10 µM was 6%.

Molecule `CC(C)(C)OC(=O)N1CCC(=Cc2ccc(C(=O)Nc3nc4ccccc4s3)c(C(F)(F)F)c2)CC1` [Compound 1-78, tert-butyl 4-(4-(benzo[d]thiazol-2-ylcarbamoyl)-3-(trifluoromethyl)benzylidene)piperidine-1-carboxylate] showed an inhibition at 10 µM of 14%.

The molecule `O=C(Nc1nc2ccccc2s1)c1ccc(C=C2CCNCC2)cc1C(F)(F)F` [Compound 1-79, N-(benzo[d]thiazol-2-yl)-4-(piperidin-4-ylidenemethyl)-2-(trifluoromethyl)benzamide] displayed an inhibition at 10 µM of 71%.

`CCNC(=O)N1CCC(=Cc2ccc(C(=O)Nc3nc4ccccc4s3)c(C(F)(F)F)c2)CC1` [Compound 1-80, 4-(4-(benzo[d]thiazol-2-ylcarbamoyl)-3-(trifluoromethyl)benzylidene)-N-ethylpiperidine-1-carboxamide] came in with an inhibition at 10 µM of 80%.

Consider `O=C(Nc1nc2ccccc2s1)c1ccc(C=C2CCN(C(=O)Nc3ccccc3)CC2)cc1C(F)(F)F` [Compound 1-81, 4-(4-(benzo[d]thiazol-2-ylcarbamoyl)-3-(trifluoromethyl)benzylidene)-N-phenylpiperidine-1-carboxamide], for which 10 µM produced 32% inhibition.

`CC(C)(C)OC(=O)N1CCC(Cc2ccc(C(=O)Nc3nc4ccccc4s3)c(C(F)(F)F)c2)CC1` [Compound 1-82, tert-butyl 4-(4-(benzo[d]thiazol-2-ylcarbamoyl)-3-(trifluoromethyl)benzyl)piperidine-1-carboxylate] displayed an inhibition at 10 µM of 2%.

With `O=C(Nc1nc2ccccc2s1)c1ccc(CC2CCNCC2)cc1C(F)(F)F` [Compound 1-83, N-(benzo[d]thiazol-2-yl)-4-(piperidin-4-ylmethyl)-2-(trifluoromethyl)benzamide], the inhibition at 10 µM was 42%.

Take `CCNC(=O)N1CCC(Cc2ccc(C(=O)Nc3nc4ccccc4s3)c(C(F)(F)F)c2)CC1` [Compound 1-84, 4-(4-(benzo[d]thiazol-2-ylcarbamoyl)-3-(trifluoromethyl)benzyl)-N-ethylpiperidine-1-carboxamide]: 10 µM produced 53% inhibition.

As for `O=C(Nc1nc2ccccc2s1)c1ccc(CC2CCN(C(=O)Nc3ccccc3)CC2)cc1C(F)(F)F` [Compound 1-85, 4-(4-(benzo[d]thiazol-2-ylcarbamoyl)-3-(trifluoromethyl)benzyl)-N-phenylpiperidine-1-carboxamide], at 10 µM the inhibition was 28%.

`CC(C)(C)OC(=O)N1CCC(=Cc2ccc(C(=O)Nc3nc4ccccc4s3)c(F)c2)CC1` [Compound 1-86, tert-butyl 4-(4-(benzo[d]thiazol-2-ylcarbamoyl)-3-fluorobenzylidene)piperidine-1-carboxylate]: 10 µM produced 60% inhibition.

Take `O=C(Nc1nc2ccccc2s1)c1ccc(C=C2CCNCC2)cc1F` [Compound 1-87, N-(benzo[d]thiazol-2-yl)-2-fluoro-4-(piperidin-4-ylidenemethyl)benzamide]: the inhibition at 10 µM is 100%.

As for `CCNC(=O)N1CCC(=Cc2ccc(C(=O)Nc3nc4ccccc4s3)c(F)c2)CC1` [Compound 1-88, 4-(4-(benzo[d]thiazol-2-ylcarbamoyl)-3-fluorobenzylidene)-N-ethylpiperidine-1-carboxamide], 10 µM produced 100% inhibition.

`O=C(Nc1nc2ccccc2s1)c1ccc(C=C2CCN(C(=O)Nc3ccccc3)CC2)cc1F` [Compound 1-89, 4-(4-(benzo[d]thiazol-2-ylcarbamoyl)-3-fluorobenzylidene)-N-phenylpiperidine-1-carboxamide] yielded an inhibition at 10 µM of 97%.

`O=C(Nc1nc2ccccc2s1)c1ccc(C=C2CCN(S(=O)(=O)c3ccccc3)CC2)cc1F` [Compound 1-90, N-(benzo[d]thiazol-2-yl)-2-fluoro-4-((1-(phenylsulfonyl)piperidin-4-ylidene)methyl)benzamide] came in with an inhibition at 10 µM of 27%.
